Source: patent US9216957B2, “Androgen receptor antagonists and uses thereof” (SUZHOU KINTOR PHARMACEUTICALS, INC., priority 2011, dated 2015)
Read-outs that look alike come from different tables or passages of the source.

Tested on: Prostate-specific antigen (PSA) production in LNCaP cells
Assay: PSA Assay (inhibition of PSA production in prostate cancer cells, ELISA)
Type: cell-based, human
Conditions: Homo sapiens
Description: PSA Assay (Inhibition Test of the Compound of the Present Invention on Prostate-Specific Antigen (PSA) Production in Various Prostate Cancer Cells).
Androgen dependent LNCaP cells were purchased from the American Type Culture Collection (ATCC, Manassas, Va.). These cells were grown in RPMI 1640 medium supplemented with 10% fetal bovine serum (FBS), 100 U/mL penicillin, 100 μg/mL streptomycin, and 0.25 μg/mL amphotericin B. The cells were maintained at 37° C. and 5% CO2. LNCaP cells between passage 20 and 35 were used for experiments. LNCaP is a hormone sensitive cell line. For the PSA assay, human prostate cancer cells LNCaP were seeded in a 96-well plate at a concentration of 5000 cells/100 μl/well. On the following day, Methyltrienolone (R1881, AR agonist) (final concentration 1 ng/ml), test compounds or bicalutamide (Casodex®, AstraZeneca) (final concentration 0.005 to 20 μM) were added. Three days after the addition, the concentration of PSA in the supernatant of the culture solution was measured by ELISA. ELISAs for human PSA in culture medium were performed using the ultra-sensitive assay procedure and reagents in the Active™ PSA assay kit (Diagnostic Systems Laboratories Inc., Webster, Tex.). Culture medium and standards (200 μl/well) were incubated in antibody-coated plates for 2 h at room temperature on a Titer plate shaker at 500-600 rpm. Wells were then washed five times. The HRP conjugate was diluted 1:20 with assay buffer, and 100 μl was added to all wells. The plates were incubated for 30 min at room temperature on the shaker and washed as before, and 100 μl TMB (3,3′,5,5′-tetramethylbenzidine, 0.4 g/l) was added. The plates were incubated for 10 min on the shaker, and the reaction was terminated with 100 μl stop solution. The plates were read using a plate reader at 450 nm with a 650 nm reference filter. PSA levels were normalized for differences in growth of LNCaP cells following various treatments as determined by the MTS assay. IC50 of PSA was calculated based on a seven point assay (concentrations of tested compound) and expressed as micromolar (uM).

[1] = LNCaP, 72 h, read-out: LNCAP IC50 (uM), inhibition of PSA production, LNCaP cells, R1881 1 ng/ml, three days, seven point assay

Structure (SMILES) | IC50 (LNCaP cells, read-out: IC50 of inhibition of PSA production in LNCaP cells) [µM] | IC50 [1] [µM]
CC(O)(CS(=O)(=O)c1ccc(F)cc1)C(=O)Nc1ccc(C#N)c(C(F)(F)F)c1 (stereo not drawn) [Bicalutamide, reference compound] | 3.1 | –
COC(=O)CCCc1ccc(N2C(=S)N(c3ccc(C#N)c(Cl)c3F)C(=O)C2(C)C)cc1 [Example 1, methyl 4-(4-(3-(3-chloro-4-cyano-2-fluorophenyl)-5,5-dimethyl-4-oxo-2-thioxoimidazolidin-1-yl)phenyl)butanoate] | – | 1.34
COC(=O)CCCc1ccc(N2C(=S)N(c3ccc(C#N)c(C(F)(F)F)c3F)C(=O)C2(C)C)cc1 [Example 2, methyl 4-(4-(3-(4-cyano-2-fluoro-3-(trifluoromethyl)phenyl)-5,5-dimethyl-4-oxo-2-thioxoimidazolidin-1-yl)phenyl)butanoate] | – | 1.45
COC(=O)CCc1ccc(N2C(=S)N(c3ccc(C#N)c(C(F)(F)F)c3F)C(=O)C2(C)C)cc1 [Example 3, methyl 3-(4-(3-(4-cyano-2-fluoro-3-(trifluoromethyl)phenyl)-5,5-dimethyl-4-oxo-2-thioxoimidazolidin-1-yl)phenyl)propanoate] | – | 7.83
CNC(=O)CCc1ccc(N2C(=S)N(c3ccc(C#N)c(C(F)(F)F)c3F)C(=O)C2(C)C)cc1 [Example 4, 3-(4-(3-(4-cyano-2-fluoro-3-(trifluoromethyl)phenyl)-5,5-dimethyl-4-oxo-2-thioxoimidazolidin-1-yl)phenyl)-N-methylpropanamide] | – | 14.4
CNC(=O)CCCc1ccc(N2C(=S)N(c3ccc(C#N)c(C(F)(F)F)c3F)C(=O)C2(C)C)cc1 [Example 5, 4-(4-(3-(4-cyano-2-fluoro-3-(trifluoromethyl)phenyl)-5,5-dimethyl-4-oxo-2-thioxoimidazolidin-1-yl)phenyl)-N-methylbutanamide] | – | 0.37
CNC(=O)CCCc1ccc(N2C(=S)N(c3cc(C(F)(F)F)c(C#N)cc3F)C(=O)C2(C)C)cc1 [Example 6, 4-(4-(3-(4-cyano-2-fluoro-5-(trifluoromethyl)phenyl)-5,5-dimethyl-4-oxo-2-thioxoimidazolidin-1-yl)phenyl)-N-methylbutanamide] | – | 4.75
CNC(=O)CCCc1ccc(N2C(=S)N(c3ccc(C#N)c(Cl)c3F)C(=O)C2(C)C)cc1 [Example 7, 4-(4-(3-(3-chloro-4-cyano-2-fluorophenyl)-5,5-dimethyl-4-oxo-2-thioxoimidazolidin-1-yl)phenyl)-N-methylbutanamide] | – | 0.65
CC1(C)C(=O)N(c2ccc(C#N)c(C(F)(F)F)c2F)C(=S)N1c1ccc(CCCC(N)=O)cc1 [Example 8, 4-(4-(3-(4-cyano-2-fluoro-3-(trifluoromethyl)phenyl)-5,5-dimethyl-4-oxo-2-thioxoimidazolidin-1-yl)phenyl)butanamide] | – | 0.43
CC1(C)C(=O)N(c2ccc(C#N)c(Cl)c2F)C(=S)N1c1ccc(CCCC(N)=O)cc1 [Example 9, 4-(4-(3-(3-chloro-4-cyano-2-fluorophenyl)-5,5-dimethyl-4-oxo-2-thioxoimidazolidin-1-yl)phenyl)butanamide] | – | 0.59
CNC(=O)CCCc1ccc(N2C(=S)N(c3ccc(C#N)c(C(F)(F)F)c3F)C(=O)C23CCC3)cc1 [Example 10, 4-(4-(7-(4-cyano-2-fluoro-3-(trifluoromethyl)phenyl)-8-oxo-6-thioxo-5,7-diazaspiro[3.4]octan-5-yl)phenyl)-N-methylbutanamide] | – | 0.42
CNC(=O)CCCc1ccc(N2C(=S)N(c3ccc(C#N)c(Cl)c3F)C(=O)C23CCC3)cc1 [Example 11, 4-(4-(7-(3-chloro-4-cyano-2-fluorophenyl)-8-oxo-6-thioxo-5,7-diazaspiro[3.4]octan-5-yl)phenyl)-N-methylbutanamide] | – | 0.54
CN(C)C(=O)CCCc1ccc(N2C(=S)N(c3ccc(C#N)c(C(F)(F)F)c3F)C(=O)C2(C)C)cc1 [Example 12, 4-{4-[3-(4-Cyano-2-fluoro-3-trifluoromethyl-phenyl)-5,5-dimethyl-4-oxo-2-thioxo-imidazolidin-1-yl]-phenyl}-N,N-dimethyl-butyramide] | – | 0.61
COc1c(C#N)ccc(N2C(=O)C(C)(C)N(c3ccc(CCCC(=O)N(C)C)cc3)C2=S)c1F [Example 13, 4-{4-[3-(4-Cyano-2-fluoro-3-methoxy-phenyl)-5,5-dimethyl-4-oxo-2-thioxo-imidazolidin-1-yl]-phenyl}-N,N-dimethyl-butyramide] | – | 1.06
CN(C)C(=O)CCCc1ccc(N2C(=S)N(c3ccc(C#N)c(Cl)c3F)C(=O)C2(C)C)cc1 [Example 14, 4-{4-[3-(3-Chloro-4-cyano-2-fluoro-phenyl)-5,5-dimethyl-4-oxo-2-thioxo-imidazolidin-1-yl]-phenyl}-N,N-dimethyl-butyramide] | – | 0.69
CNC(=O)CCOc1ccc(N2C(=S)N(c3ccc(C#N)c(C(F)(F)F)c3F)C(=O)C2(C)C)cc1 [Example 15, 3-(4-(3-(4-cyano-2-fluoro-3-(trifluoromethyl)phenyl)-5,5-dimethyl-4-oxo-2-thioxoimidazolidin-1-yl)phenoxy)-N-methylpropanamide] | – | 0.45
CNC(=O)CCOc1ccc(N2C(=S)N(c3ccc(C#N)c(Cl)c3F)C(=O)C2(C)C)cc1 [Example 16, 3-(4-(3-(3-chloro-4-cyano-2-fluorophenyl)-5,5-dimethyl-4-oxo-2-thioxoimidazolidin-1-yl)phenoxy)-N-methylpropanamide] | – | 0.58
CNC(=O)COCc1ccc(N2C(=S)N(c3ccc(C#N)c(C(F)(F)F)c3F)C(=O)C2(C)C)cc1 [Example 17, 2-((4-(3-(4-cyano-2-fluoro-3-(trifluoromethyl)phenyl)-5,5-dimethyl-4-oxo-2-thioxoimidazolidin-1-yl)benzyl)oxy)-N-methylacetamide] | – | 0.53
CNC(=O)COCc1ccc(N2C(=S)N(c3ccc(C#N)c(Cl)c3F)C(=O)C2(C)C)cc1 [Example 18, 2-((4-(3-(3-chloro-4-cyano-2-fluorophenyl)-5,5-dimethyl-4-oxo-2-thioxoimidazolidin-1-yl)benzyl)oxy)-N-methylacetamide] | – | 0.56
CC1(C)C(=O)N(c2ccc(C#N)c(C(F)(F)F)c2F)C(=S)N1c1ccc(CCCc2ncc[nH]2)cc1 [Example 19, 4-(3-(4-(3-(1H-imidazol-2-yl)propyl)phenyl)-4,4-dimethyl-5-oxo-2-thioxoimidazolidin-1-yl)-3-fluoro-2-(trifluoromethyl)benzonitrile] | – | 0.76
CC1(C)C(=O)N(c2ccc(C#N)c(Cl)c2F)C(=S)N1c1ccc(CCCc2ncc[nH]2)cc1 [Example 20, 2-Chloro-3-fluoro-4-(3-{4-[3-(1H-imidazol-2-yl)-propyl]-phenyl}-4,4-dimethyl-5-oxo-2-thioxo-imidazolidin-1-yl)-benzonitrile] | – | 2.14
COc1c(C#N)ccc(N2C(=O)C(C)(C)N(c3ccc(CCCc4ncc[nH]4)cc3)C2=S)c1F [Example 21, 3-Fluoro-4-(3-{4-[3-(1H-imidazol-2-yl)-propyl]-phenyl}-4,4-dimethyl-5-oxo-2-thioxo-imidazolidin-1-yl)-2-methoxy-benzonitrile] | – | 1.83
CNC(=O)C(C)(C)CCc1ccc(N2C(=S)N(c3ccc(C#N)c(C(F)(F)F)c3F)C(=O)C2(C)C)cc1 [Example 22, 4-{4-[3-(4-Cyano-2-fluoro-3-trifluoromethyl-phenyl)-5,5-dimethyl-4-oxo-2-thioxo-imidazolidin-1-yl]-phenyl}-2,2,N-trimethyl-butyramide] | – | 0.6
CNC(=O)C(C)(C)CCc1ccc(N2C(=S)N(c3ccc(C#N)c(OC)c3F)C(=O)C2(C)C)cc1 [Example 23, 4-{4-[3-(4-Cyano-2-fluoro-3-methoxy-phenyl)-5,5-dimethyl-4-oxo-2-thioxo-imidazolidin-1-yl]-phenyl}-2,2,N-trimethyl-butyramide] | – | 0.89
CNC(=O)C(C)(C)CCc1ccc(N2C(=S)N(c3ccc(C#N)c(Cl)c3F)C(=O)C2(C)C)cc1 [Example 24, 4-{4-[3-(3-Chloro-4-cyano-2-fluoro-phenyl)-5,5-dimethyl-4-oxo-2-thioxo-imidazolidin-1-yl]-phenyl}-2,2,N-trimethyl-butyramide] | – | 1.09
CNC(=O)C(C)(C)CCc1ccc(N2C(=S)N(c3ccc(C#N)c(C(F)(F)F)c3F)C(=O)C23CCC3)cc1 [Example 25, 4-{4-[7-(4-Cyano-2-fluoro-3-trifluoromethyl-phenyl)-8-oxo-6-thioxo-5,7-diaza-spiro[3.4]oct-5-yl]-phenyl}-2,2,N-trimethyl-butyramide] | – | 0.82
CNC(=O)C(C)(C)CCc1ccc(N2C(=S)N(c3ccc(C#N)c(OC)c3F)C(=O)C23CCC3)cc1 [Example 26, 4-{4-[7-(4-Cyano-2-fluoro-3-methoxy-phenyl)-8-oxo-6-thioxo-5,7-diaza-spiro[3.4]oct-5-yl]-phenyl}-2,2,N-trimethyl-butyramide] | – | 0.97
